Where “and” joins values, the source holds several entries; their conditions need not be identical. Identical values can stand only once.
Experiments:
DSS-induced colitis = DSS-induced colitis in mice: TCS with or without GUSi (colon length, histology, FACS, qRT-PCR); assay type: in vivo
Excerpt: (§1) After another 3 weeks, the mice were stimulated with 2% DSS (molecular weight = 36–50 KDa, MP Biomedicals, Solon, OH) in drinking water for 6 days to induce colitis. At end of the experiment, the mice were sacrificed for analysis.
Total RNA of colon tissues and MC38 cells were isolated using Trizol reagent (Ambion) according to the manufacturer’s instruction. RNA was reverse transcribed into cDNA using the High Capacity cDNA Reverse Transcription kit (Applied Biosystem) according to the manufacturer’s instructions. In all, 20 μL PCR reactions were prepared using the Maxima SYBR Green Master Mix (Thermo Fisher Scientific), and qPCR was carried out using a DNA Engine Opticon System (Bio-Rad Laboratories). Mouse-specific primer sequences (Thermo Fisher Scientific) used to detect inflammatory biomarkers are listed in Supplementary Table S6. Gapdh expression was used as an internal control.
Distal colon tissues were dissected, washed with cold PBS, and digested with Hank’s balanced salt solution (HBSS, Lonza) supplemented with 1 mM dithiothreitol (DTT) and 5 mM EDTA at 4 °C (colon […] cells). The released cells were stained with FITC-conjugated anti-mouse CD45 (BioLegend, Clone: 30-F11), PerCP/Cy5.5-conjugated anti-mouse F4/80 (BioLegend, Clone: BM8), and PE/Cy7-conjugated anti-mouse Ly-6G/Ly-6C (GR-1) (BioLegend, Clone: RB6-8C5) with a 1:100 diluted solution. Cells were stained with Zombie Violet^TM dye (Zombie Violet^TM Fixable Viability Kit; BioLegend) according to the manufacturer’s instructions to exclude dead cells. Gating and cell identification strategies are as follows: briefly, cell doublets and clumps were eliminated using FSC-A gating and debris was eliminated using FSC-A vs SSC-A. Dead cells were gated out using Zombie Violet™ dye. Flow cytometry data were acquired on a BD LSR Fortessa^TMcell analyzer (Becton Dickinson, Franklin Lakes, NJ) and analyzed using FlowJo software (FlowJo, LLC). Gating strategies used for the identification of major immune cell populations are shown in Supplementary Fig. S17.
The dissected colon tissues were fixed in 10% neutral buffered formalin (Thermo Fisher Scientific) for 48 h. After dehydration, the tissues were embedded in paraffin and sliced ([…]) by Rotary Microtome (Thermo Fisher Scientific). The slices were dewaxed in serial xylene and rehydrated through ethanol solutions, stained with hematoxylin and eosin (Sigma-Aldrich), and images were obtained under 200× magnification (BZ-X700 microscope, Keyence, Itasca, IL). The histologic scores were evaluated by a blinded observer according to the following measures: crypt architecture, degree of inflammatory cell infiltration, muscle thickening, goblet cell depletion, and crypt abscess. The histologic damage score is the sum of each individual score.

[1] = Target engagement: GUSi in colon tissue and TCS to TCS-G ratio in colon digesta by LC-MS/MS; assay type: in vivo, mice; conditions: for GUSi in colon tissue: GUSi-treated mice, individual mice
Procedure: as §1
Fig. S15. Orally dosed GUSi reaches the mouse colon and suppresses conversion of TCS -G to TCS. a.
mice were stimulated with DSS to induce colitis. The final GUSi was dosed on day 25 and mice were sacrificed
for analysis on day 27. b. GUSi is detected in the mouse colon 2 days after the final dose of the inhibitor. c.
GUSi treatment reduces the ratio of TCS to TCS-G in colon digesta.
per group. NA: no TCS or TCS-G detected.

[2] = LC-MS/MS profiling of TCS metabolism in mice (TCS via diet for 4 weeks); conditions: for concentration of TCS, TCS-G, TCS-Sulfate: individual mice
[3] = LC-MS/MS of TCS and its metabolites in human stool and urine after use of TCS-containing personal care products; assay type: in vivo; conditions: for TCS metabolites in human stool / TCS metabolites in human urine: Treatment TCS, individual subjects; for average molar concentration ratio: TCS-exposed subjects;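 as to Profile in stool (%): molar share of summed TCS plus TCS-G plus TCS-sulfate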;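 as to Profile in urine (%): molar share of summed TCS plus TCS-G plus TCS-sulfate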;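 as to average molar concentration ratio: molar share of summed TCS plus TCS-G plus TCS-sulfate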
Excerpt: To broaden our understanding of TCS metabolic profiles in the gut, we next analyzed TCS metabolism in human subjects. We utilized urine and stool samples from a previous study in which the recruited human subjects were first subjected to a washout period (no usage of TCS-containing products), then were randomly assigned to two groups that used personal care products like toothpaste with or without TCS for up to four months (see the scheme of the experiment in Fig. 1c)[15]. Previous data had established that humans are primarily exposed to TCS via toothpaste that provides a direct oral route to the gastrointestinal tract[16],[17].

[4] = Antibiotic suppression of gut microbiota: TCS colonic metabolism in mice (80 ppm TCS diet, 4 weeks); assay type: in vivo; conditions: 80 ppm TCS via diet 4 weeks; antibiotic cocktail vs none
Excerpt: This antibiotic composition was used in previous studies by others[20],[21] and us[22],[23]. […] After another 4 weeks, the mice were sacrificed, and their tissues were collected for LC-MS/MS analysis.

[5] = TCS colonic metabolism in conventional vs germ-free Swiss Webster mice; assay type: in vivo; conditions: 6 h after oral gavage of 8 mg/kg TCS, individual mice
[6] = Antibiotic suppression of gut microbiota: kinetics of TCS colonic metabolism after one-time oral gavage; conditions: within the 24-h period; 8 mg/kg TCS oral gavage
[7] = DSS colitis mice, FACS, individual animals, Fig.5d
[8] = DSS colitis mice, gene expression, individual animals, Fig.5e
[9] = treatment time 0 months (after washout)

SMILES: C1CCc2c(c(N3CCOCC3)nc3sc4c(N5CCNCC5)nnnc4c23)C1 [GUSi, UNC10201652]
- colitis-enhancing effects of TCS with co-administration of GUSi (DSS-induced colitis; 1 mg/kg GUSi via oral gavage, 80 ppm TCS via diet, DSS-induced colitis, all measures): eliminated
- cd45+(%) (DSS-induced colitis; [7]): 3.37% and 1.44% and 2.8% and 3.35% and 3.49% and 6.62% and 4.63% and 3.22%
- f4/80+ (%) (DSS-induced colitis; [7]): 5.88% and 5.56% and 2.33% and 7.14% and 0% and 1.72%
- gr-1+ (%) (DSS-induced colitis; [7]): 0% and 2.94% and 5.56% and 1.43% and 2.13%
- Il-6 (DSS-induced colitis; [8]): 0.5774 and 0.763 and 0.8366 and 0.5822 and 0.577 and 0.6095
- Il-17 (DSS-induced colitis; [8]): 0.5948 and 0.2298 and 0.792 and 0.6818 and 0.4596 and 0.7005
- Il-23 (DSS-induced colitis; [8]): 0.7347 and 0.9268 and 1.245 and 0.9397 and 0.6326 and 1.199
- Mcp1 (DSS-induced colitis; [8]): 0.841 and 0.7995 and 1.048 and 0.7621 and 1.517 and 1.4734 and 0.8163
- Tnf-α (DSS-induced colitis; [8]): 1.652 and 0.2802 and 0.2939 and 0.2088 and 0.6209 and 0.7192
- HE (DSS-induced colitis; DSS colitis mice, histology score, individual animals, Fig.5c): 4 and 3 and 6
- colon length (cm) (DSS-induced colitis; DSS colitis mice, individual animals, Fig.5b): 6.9 cm and 7.5 cm and 7.1 cm and 7.2 cm and 6.7 cm
- presence in colon tissues ([1]; 2 days after the final oral administration of GUSi (1 mg/kg)): detected
- ratio of TCS to TCS-G in colon digesta ([1]; GUSi 1 mg/kg oral gavage, TCS via diet): significantly reduced
- GUSi in colon tissue ([1]; TCS): 4.6 pmol/g and 5.3 pmol/g and 18.7 pmol/g and 4.5 pmol/g and 2.1 pmol/g and 0.7 pmol/g and 6.2 pmol/g and 5.7 pmol/g and 12 pmol/g and 5.4 pmol/g
- GUSi in colon tissue ([1]; Veh (no TCS)): 9 pmol/g and 9.3 pmol/g and 5.9 pmol/g and 9.8 pmol/g and 11.9 pmol/g and 9.9 pmol/g and 14 pmol/g and 8.6 pmol/g

SMILES: O=C(O)C1OC(Oc2cc(Cl)ccc2Oc2ccc(Cl)cc2Cl)C(O)C(O)C1O (centres unmarked) [TCS-G, triclosan-glucuronide]
- concentration of TCS, TCS-G, TCS-Sulfate ([2]; Cecum (digesta), 80 ppm TCS via diet 4 weeks): 0.45 pmol/mg and 0.99 pmol/mg and 0.44 pmol/mg and 0.88 pmol/mg and 0.62 pmol/mg and 0.91 pmol/mg
- concentration of TCS, TCS-G, TCS-Sulfate ([2]; Colon digesta, 1 ppm TCS in diet 4 weeks): 0 pmol/mg
- concentration of TCS, TCS-G, TCS-Sulfate ([2]; Colon digesta, 10 ppm TCS in diet 4 weeks): 0.02 pmol/mg
- concentration of TCS, TCS-G, TCS-Sulfate ([2]; Colon digesta, 80 ppm TCS in diet 4 weeks): 0.1 pmol/mg
- concentration of TCS, TCS-G, TCS-Sulfate ([2]; Feces, 1 ppm TCS in diet 4 weeks): 0.06 pmol/mg
- concentration of TCS, TCS-G, TCS-Sulfate ([2]; Feces, 10 ppm TCS in diet 4 weeks): 0.13 pmol/mg
- concentration of TCS, TCS-G, TCS-Sulfate ([2]; Feces, 80 ppm TCS in diet 4 weeks): 0.35 pmol/mg and 0.43 pmol/mg
- concentration of TCS, TCS-G, TCS-Sulfate ([2]; Heart, 80 ppm TCS via diet 4 weeks): 2.11 pmol/mg and 1.13 pmol/mg and 0.90 pmol/mg and 1.39 pmol/mg
- concentration of TCS, TCS-G, TCS-Sulfate ([2]; SI 1st section (digesta), 80 ppm TCS via diet 4 weeks): 14.84 pmol/mg and 26.51 pmol/mg and 44.77 pmol/mg and 37.15 pmol/mg
- concentration of TCS, TCS-G, TCS-Sulfate ([2]; SI 2nd section (digesta), 80 ppm TCS via diet 4 weeks): 56.00 pmol/mg and 24.46 pmol/mg and 19.60 pmol/mg and 25.12 pmol/mg and 26.25 pmol/mg and 17.70 pmol/mg and 32.78 pmol/mg and 21.27 pmol/mg and 57.45 pmol/mg and 7.43 pmol/mg
- concentration of TCS, TCS-G, TCS-Sulfate ([2]; SI 3rd section (digesta), 80 ppm TCS via diet 4 weeks): 27.59 pmol/mg and 32.96 pmol/mg and 20.86 pmol/mg and 36.42 pmol/mg and 26.32 pmol/mg and 29.79 pmol/mg and 32.41 pmol/mg and 48.40 pmol/mg and 60.13 pmol/mg and 35.24 pmol/mg
- concentration of TCS, TCS-G, TCS-Sulfate ([2]; SI 4th section (digesta), 80 ppm TCS via diet 4 weeks): 46.08 pmol/mg and 59.25 pmol/mg and 48.99 pmol/mg and 79.17 pmol/mg and 94.49 pmol/mg and 43.76 pmol/mg and 46.26 pmol/mg and 23.11 pmol/mg and 8.33 pmol/mg and 51.24 pmol/mg
- share of TCS metabolites found ([2]; digesta of the 4th section of the mouse small intestine, 80 ppm TCS via diet 4 weeks): 55.4%
- share of TCS metabolites found ([2]; fecal content, 80 ppm TCS via diet 4 weeks): 0.7%
- Profile in urine (%) ([3]; TCS-exposed human subjects, n=7 urine samples): 98.39%
- Profile in stool (%) ([3]; TCS-exposed human subjects, n=23 stool samples): 0.80%
- TCS metabolites in human stool [3, 9]: 10.69 pmol/ g stool and 5.96 pmol/ g stool and < LOD and 10.80 pmol/ g stool
- TCS metabolites in human urine [3, 9]: 18.4 nM urine and 3.47 nM urine and < LOD and 12.5 nM urine
- TCS metabolites in human stool ([3]; treatment time 1 month): 10.24 pmol/ g stool and 13.69 pmol/ g stool and < LOD (3×) and 2.81 pmol/ g stool
- TCS metabolites in human urine ([3]; treatment time 1 month): 626 nM urine
- TCS metabolites in human stool ([3]; treatment time 2 months): 3.18 pmol/ g stool and 2.97 pmol/ g stool and < LOD (2×) and 4.42 pmol/ g stool
- TCS metabolites in human urine ([3]; treatment time 2 months): 953 nM urine
- TCS metabolites in human stool ([3]; treatment time 3 months): 7.01 pmol/ g stool and 5.96 pmol/ g stool and < LOD (3×) and 6.49 pmol/ g stool
- TCS metabolites in human urine ([3]; treatment time 3 months): 771 nM urine
- TCS metabolites in human stool ([3]; treatment time 4 months): 7.57 pmol/ g stool and < LOD (3×) and 3.12 pmol/ g stool and 4.69 pmol/ g stool
- TCS metabolites in human urine ([3]; treatment time 4 months): 1037 nM urine and 70.9 nM urine and 1373 nM urine and 775 nM urine
- average molar concentration ratio ([3]; human stool): 0.8%
- average molar concentration ratio ([3]; human urine): 98.4%
- change of concentration in the fecal content by antibiotic treatment [4]: sixfold
- tcs, tcs-G in colon digesta ([5]; CONV Swiss Webster mice): 0.05 pmol/mg and 0.09 pmol/mg and 0.07 pmol/mg and 0.08 pmol/mg and 0.03 pmol/mg and 0.02 pmol/mg
- tcs, tcs-G in colon digesta ([5]; GF Swiss Webster mice): 3.55 pmol/mg and 2.97 pmol/mg and 3.05 pmol/mg and 2.08 pmol/mg and 2.61 pmol/mg
- increase of AUC in colon digesta by antibiotic treatment [6]: ~ 200 fold
